Experimental data from the RepoRT retention time repository (doi:10.1002/minf.201400016).

Assay: RP, Waters ACQUITY UPLC HSS T3, 150 × 2.1 mm, 1.7 µm, 30 °C, 0.4 mL/min, estimated dead time 0.83 min; A: water + 0.2% formic acid; B: 2% water + 98% acetonitrile + 0.2% formic acid; gradient (min/%B) 0/0 2.5/0 7.5/10 10/100 12/100 18/0 25/0
Conditions: stereoisomer not certain
`C=C1C(=O)OC2C1CCC(=C)C1CCC(=C)C12` (configuration not stated) [dehydrocostus lactone] gave an LC retention time of 10.9 min.
For `C[n+]1cccc(C(=O)[O-])c1` [N-methylnicotinate], the LC retention time was 1.73 min.
In the case of `NC(=O)NCCCC(N)C(=O)O` (configuration not stated) [citrulline], the LC retention time is reported as 1.55 min.
With `CCC(C)C(=O)C(=O)O` (configuration not stated) [3-methyl-2-oxovaleric acid] the LC retention time was 9.23 min.
Molecule `O=C(O)C=Cc1cccc(O)c1` [3-coumaric acid] has an LC retention time of 9.54 min.
In the case of `CCC=CCC1C(=O)CCC1CC(=O)OC` (configuration not stated) [methyl jasmonate], the LC retention time is reported as 10.6 min.
Molecule `COc1ccc2ncccc2c1` [6-methoxyquinoline] has an LC retention time of 8.57 min.
Work on `O=C(O)c1cccc(O)c1` [3-hydroxybenzoic acid] yielded an LC retention time of 9.31 min.
`CC(=CCNc1ncnc2c1ncn2C1OC(CO)C(O)C1O)CO` (stereo not drawn) [9-ribosyl-trans-zeatin] showed an LC retention time of 8.91 min.
Molecule `Nc1ccnc(=O)[nH]1` [cytosine] has an LC retention time of 1.62 min.
With `CC(=CCNc1ncnc2nc[nH]c12)CO` [trans-zeatin] the LC retention time was 7.57 min.
`Nc1cccc(C(=O)O)c1` [3-aminobenzoic acid] gave an LC retention time of 5.54 min.
Molecule `CC(C)CC(=O)C(=O)O` [4-methyl-2-oxopentanoic acid] has an LC retention time of 9.39 min.
`O=C[C@@H](O)[C@H](O)[C@H](O)[C@H](O)CO` [D-altrose] showed an LC retention time of 1.55 min.
With `NC(=O)c1cccnc1` [nicotinamide] the LC retention time was 3.33 min.
Molecule `COc1cc(C=O)ccc1O` [vanillin] has an LC retention time of 9.53 min.
In the case of `CC(O)(CC(=O)O)C(=O)O` (configuration not stated) [citramalic acid], the LC retention time is reported as 5.17 min.
Molecule `Cc1cc(Cl)ccc1OCC(=O)O` [(4-chloro-2-methylphenoxy)acetic acid] has an LC retention time of 10.3 min.
For `O=Cc1ccc(O)cc1` [4-hydroxybenzaldehyde], the LC retention time was 9.4 min.
With `O=c1ccc2cc(OC3OC(CO)C(O)C(O)C3O)c(O)cc2o1` (configuration not stated) [esculin hydrate] the LC retention time was 8.95 min.
With `OCC1OC(OCC2OC(O)C(O)C(O)C2O)C(O)C(O)C1O` (configuration not stated) [gentiobiose] the LC retention time was 1.73 min.
For `Cc1cc(O)c2c(c1)C(=O)c1cc(O)cc(O)c1C2=O` [emodin], the LC retention time was 10.7 min.
Work on `O=C(O)Cn1ccc2ccccc21` [1H-indole-1-acetic acid] yielded an LC retention time of 9.71 min.
In the case of `NCCCCCCCCN` [1-8-diaminooctane], the LC retention time is reported as 1.74 min.
Molecule `NC(=O)NC1NC(=O)NC1=O` (configuration not stated) [allantoin] has an LC retention time of 1.63 min.
Work on `O=C(O)CCCCC(=O)O` [adipic acid] yielded an LC retention time of 8.14 min.
For `O=C(O)C1CCCN1` (configuration not stated) [proline], the LC retention time was 1.73 min.
`CCCCCCCCCCCCCCCC[C@@H](O)C(=O)O` [(R)-2-hydroxystearic acid] showed an LC retention time of 12.4 min.
Work on `O=c1c(O)c(-c2ccc(O)cc2)oc2cc(O)cc(O)c12` [kaempferol] yielded an LC retention time of 9.98 min.
Molecule `CSC[C@H]1O[C@@H](n2cnc3c(N)ncnc32)[C@H](O)[C@@H]1O` [5'-S-methyl-5'-thioadenosine] has an LC retention time of 8.32 min.
With `C[N+](C)(C)CC(=O)[O-]` [glycine betaine] the LC retention time was 1.55 min.
`Oc1cccc2cccnc12` [quinolin-8-ol] showed an LC retention time of 7.14 min.
Molecule `NCCCC[C@H](N)C(=O)O` [L-lysine] has an LC retention time of 1.23 min.
`Cn1cc(CC(N)C(=O)O)c2ccccc21` (configuration not stated) [1-methyltryptophan] showed an LC retention time of 9.17 min.
With `O=C(COP(=O)(O)O)[C@@H](O)[C@H](O)[C@H](O)CO` [D-fructose 1-phosphate] the LC retention time was 1.49 min.
Molecule `Cn1c[n+](C2OC(CO)C(O)C2O)c2nc(N)[nH]c(=O)c21` (configuration not stated) [7-methylguanosine] has an LC retention time of 5.75 min.
Molecule `O=c1c(O)c(-c2ccc(O)c(O)c2)oc2cc(O)cc(O)c12` [quercetin] has an LC retention time of 9.79 min.
For `O=c1cc(-c2ccc(O)cc2)oc2cc(O)cc(O)c12` [apigenin], the LC retention time was 9.92 min.
With `c1ccc2[nH]ccc2c1` [1H-indole] the LC retention time was 10.2 min.
With `COc1cc(C(=O)O)ccc1O` [vanillic acid] the LC retention time was 9.27 min.
For `NC(CCCC(=O)O)C(=O)O` (configuration not stated) [2-aminoadipic acid], the LC retention time was 1.73 min.
In the case of `NCCSCC(N)C(=O)O` [L-thialysine], the LC retention time is reported as 1.26 min.
